Our source for the IC50 values is patent US8487108B2, “Piperidinyl carbamate intermediates for the synthesis of aspartic protease inhibitors” (Vitae Pharmaceuticals, Inc., priority 2005, dated 2013).

The assay deals with T1, trypsin-activated recombinant human renin (Homo sapiens, UniProt P00797).
T1 sequence (P00797 67-406): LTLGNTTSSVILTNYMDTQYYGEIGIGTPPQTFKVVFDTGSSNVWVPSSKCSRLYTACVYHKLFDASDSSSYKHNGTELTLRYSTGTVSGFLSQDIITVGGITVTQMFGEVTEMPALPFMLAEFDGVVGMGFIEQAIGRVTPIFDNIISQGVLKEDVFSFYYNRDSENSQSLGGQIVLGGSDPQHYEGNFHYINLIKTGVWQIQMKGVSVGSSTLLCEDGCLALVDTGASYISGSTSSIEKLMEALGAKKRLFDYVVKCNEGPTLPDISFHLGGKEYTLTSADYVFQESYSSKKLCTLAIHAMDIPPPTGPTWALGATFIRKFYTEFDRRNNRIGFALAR
Description: Renin fluorescence assay (internally quenched peptide substrate). Type of assay: biochemical. The following applies: compounds I*. The procedure:
The sequence of this peptide corresponds to the sequence of human angiotensinogen. The following test protocol can be used. All reactions are carried out in a flat bottom white opaque microtiter plate. A 4 μL aliquot of 400 μM renin substrate (DABCYL-γ-[…]) in 192 μL assay buffer (50 mM BES, 150 mM NaCl, 0.25 mg/mL bovine serum albumin, pH7.0) is added to 4 μL of test compound in DMSO at various concentrations ranging from 10 μM to 1 nM final concentrations. Next, 100 μL of trypsin-activated recombinant human renin (final enzyme concentration of 0.2-2 nM) in assay buffer is added, and the solution is mixed by pipetting. The increase in fluorescence at 495 nm (excitation at 340 nm) is measured for 60-360 minutes at rt using a Perkin-Elmer Fusion microplate reader. The slope of a linear portion of the plot of fluorescence-increase as a function of time is then determined, and the rate is used for calculating percent inhibition in relation to uninhibited control. […] (Wang G. T. et al. Anal. Biochem. 1993, 210, 351; Nakamura, N. et al. J. Biochem. (Tokyo) 1991, 109, 741; Murakami, K. et al. Anal Biochem. 1981, 110, 232).
`CNC[C@H](CC1CCCCC1)NC(=O)N1CCC[C@@H]([C@H](CCCNC(=O)OC)c2cccc(F)c2)C1` [I*-22a, methyl (S)-4-((S)-1-((S)-1-cyclohexyl-3-(methylamino)propan-2-ylcarbamoyl)piperidin-3-yl)-4-(3-fluorophenyl)butylcarbamate]: the IC50 was above 50 nM.
For `CNC[C@H](CC1CCCCC1)NC(=O)N1CCC[C@@H]([C@@H](CCCNC(=O)OC)c2cccc(F)c2)C1` [I*-23a, methyl (R)-4-((S)-1-((S)-1-cyclohexyl-3-(methylamino)propan-2-ylcarbamoyl)piperidin-3-yl)-4-(3-fluorophenyl)butylcarbamate] the value was below 10 nM; for `CNC[C@H](CC1CCCC1)NC(=O)N1CCC[C@@H]([C@@H](OCCNC(=O)OC)c2cc(F)ccc2C)C1` [I*-24a, methyl 2-((R)—((R)-1-((S)-1-cyclopentyl-3-(methylamino)propan-2-ylcarbamoyl)piperidin-3-yl)(5-fluoro-2-methylphenyl)methoxy)ethylcarbamate], below 1 nM; for `CNC[C@H](CC1CCCCC1)NC(=O)N1CCC[C@@H]([C@@](C)(OCC(=O)NC)c2cccc(Cl)c2)C1` [I*-25a, (R)-3-((R)-1-(3-chlorophenyl)-1-(2-(methylamino)-2-oxoethoxy)ethyl)-N—((S)-1-cyclohexyl-3-(methylamino)propan-2-yl)piperidine-1-carboxamide], above 50 nM.
For `CNC[C@H](CC1CCOCC1)NC(=O)N1CCC[C@@H]([C@@H](OCCNC(=O)OC)c2cccc(F)c2)C1` [I*-26a, methyl 2-((R)-(3-fluorophenyl)((R)-1-((S)-1-(methylamino)-3-(tetrahydro-2H-pyran-4-yl)propan-2-ylcarbamoyl)piperidin-3-yl)methoxy)ethylcarbamate] the value was below 50 nM; for `CNC[C@@H](NC(=O)N1CCC[C@@H]([C@@H](OCCNC(=O)OC)c2cccc(F)c2)C1)[C@@H](O)C1CCCC1` [I*-27a, methyl 2-((R)-((R)-1-((1S,2R)-1-cyclopentyl-1-hydroxy-3-(methylamino)propan-2-ylcarbamoyl)piperidin-3-yl)(3-fluorophenyl)methoxy)ethylcarbamate], below 10 nM.
For `COC(=O)NCCO[C@@H](c1cccc(F)c1)[C@@H]1CCCN(C(=O)NC[C@@H](N)C[C@H]2CCCCOC2)C1` [I*-28a, methyl 2-((R)-((R)-1-((S)-2-amino-3-((R)-oxepan-3-yl)propylcarbamoyl)piperidin-3-yl)(3-fluorophenyl)methoxy)ethylcarbamate] the value was below 10 nM.
As for `CNC[C@H](CC1CCCC1)NC(=O)N1CCC[C@@H]([C@@H](OCCNC(=O)OC)c2cccc(Cl)c2)C1` [I*-29a, methyl 2-((R)-(3-chlorophenyl)((R)-1-((S)-1-cyclopentyl-3-(methylamino)propan-2-ylcarbamoyl)piperidin-3-yl)methoxy)ethylcarbamate], the half-maximal inhibitory concentration (IC50) was below 1 nM.
In the case of `CCNC(=O)CO[C@@H](c1cccc(Cl)c1)[C@@H]1CCCN(C(=O)N[C@H](CNC)C[C@H]2CCCOC2)C1` [I*-30a, (R)-3-((R)-(3-chlorophenyl)(2-(ethylamino)-2-oxoethoxy)methyl)-N—((S)-1-(methylamino)-3-((R)-tetrahydro-2H-pyran-3-yl)propan-2-yl)piperidine-1-carboxamide], the IC50 is below 20 nM.
For `CCNC(=O)CO[C@@H](c1cccc(Cl)c1)[C@@H]1CCCN(C(=O)N[C@H](CNC)CC2CCOCC2)C1` [I*-31a, (R)-3-((R)-(3-chlorophenyl)(2-(ethylamino)-2-oxoethoxy)methyl)-N—((S)-1-(methylamino)-3-(tetrahydro-2H-pyran-4-yl)propan-2-yl)piperidine-1-carboxamide] the value was above 50 nM; for `CNC[C@H](CC1CCCCC1)NC(=O)N1CCC[C@@H]([C@@H](OCCNC(=O)OC)c2nc(C)cs2)C1` [I*-32a, methyl 2-((R)-((R)-1-((S)-1-cyclohexyl-3-(methylamino)propan-2-ylcarbamoyl)piperidin-3-yl)(4-methylthiazol-2-yl)methoxy)ethylcarbamate], below 10 nM; for `CNC[C@H](CC1CCCCC1)NC(=O)N1CCC[C@@H]([C@H](OCCNC(=O)OC)c2nc(C)cs2)C1` [I*-33a, methyl 2-((S)-((R)-1-((S)-1-cyclohexyl-3-(methylamino)propan-2-ylcarbamoyl)piperidin-3-yl)(4-methylthiazol-2-yl)methoxy)ethylcarbamate], above 50 nM.
Regarding `CCC(C)(C)C[C@@H](CNC)NC(=O)N1CCC[C@@H]([C@@H](OCCNC(=O)OC)c2cccc(Cl)c2)C1` [I*-34a, methyl 2-((R)-(3-chlorophenyl)((R)-1-((S)-4,4-dimethyl-1-(methylamino)hexan-2-ylcarbamoyl)piperidin-3-yl)methoxy)ethylcarbamate], the IC50 was below 10 nM.
Next, `COCC(C)(C)C[C@H](N)CNC(=O)N1CCC[C@@H]([C@@H](OCCNC(=O)OC)c2cccc(Cl)c2)C1` [I*-35a, methyl 2-((R)—((R)-1-((S)-2-amino-5-methoxy-4,4-dimethylpentylcarbamoyl)piperidin-3-yl)(3-chlorophenyl)methoxy)ethylcarbamate]: below 20 nM; `CNC[C@H](CC1CCOCC1)NC(=O)N1CCC[C@@H]([C@@H](OCCNC(=O)OC)c2cc(C)cc(C)c2)C1` [I*-36a, methyl 2-((R)-(3,5-dimethylphenyl)((R)-1-((S)-1-(methylamino)-3-(tetrahydro-2H-pyran-4-yl)propan-2-ylcarbamoyl)piperidin-3-yl)methoxy)ethylcarbamate]: below 50 nM; `CNC[C@H](CC1CCOCC1)NC(=O)N1CCC[C@@H]([C@@H](OCCNC(=O)OC)c2cc(C)ccc2C)C1` [I*-37a, methyl 2-((R)-(2,5-dimethylphenyl)((R)-1-((S)-1-(methylamino)-3-(tetrahydro-2H-pyran-4-yl)propan-2-ylcarbamoyl)piperidin-3-yl)methoxy)ethylcarbamate]: below 20 nM.
Turning to `COC(=O)NCCO[C@@H](c1cccc(Cl)c1)[C@@H]1CCCN(C(=O)NC[C@@H](N)COc2ccccc2)C1` [I*-38a, methyl 2-((R)—((R)-1-((R)-2-amino-3-phenoxypropylcarbamoyl)piperidin-3-yl)(3-chlorophenyl)methoxy)ethylcarbamate], the concentration for half-maximal inhibition (IC50) was below 50 nM.
Next, `CNC[C@H](CC1CCCCCC1)NC(=O)N1CCC[C@@H]([C@@H](OCCNC(=O)OC)c2cccc(F)c2)C1` [I*-39a, methyl 2-((R)-((R)-1-((S)-1-cycloheptyl-3-(methylamino)propan-2-ylcarbamoyl)piperidin-3-yl)(3-fluorophenyl)methoxy)ethylcarbamate]: below 1 nM; `CNC[C@H](CC1CCCCC1)NC(=O)N1CCC[C@@H]([C@@H](OCCNC(=O)OC)c2cc(F)ccc2C)C1` [I*-40a, methyl 2-((R)-((R)-1-((S)-1-cyclohexyl-3-(methylamino)propan-2-ylcarbamoyl)piperidin-3-yl)(5-fluoro-2-methylphenyl)methoxy)ethylcarbamate]: below 1 nM.
With `CCNC[C@H](CC1CCCCC1)NC(=O)N1CCC[C@@H]([C@@H](OCCNC(=O)OC)c2cccc(F)c2)C1` [I*-41a, methyl 2-((R)-((R)-1-((S)-1-cyclohexyl-3-(ethylamino)propan-2-ylcarbamoyl)piperidin-3-yl)(3-fluorophenyl)methoxy)ethylcarbamate], the IC50 was below 10 nM.
Consider `CNC[C@@H](CC1(C)CCCCC1)NC(=O)N1CCC[C@@H]([C@@H](OCCNC(=O)OC)c2cccc(F)c2)C1` [I*-42a, methyl 2-((R)-(3-fluorophenyl)((R)-1-((R)-1-(methylamino)-3-(1-methylcyclohexyl)propan-2-ylcarbamoyl)piperidin-3-yl)methoxy)ethylcarbamate], for which the IC50 is above 50 nM.
For `CNC[C@H](CC1(C)CCCCC1)NC(=O)N1CCC[C@@H]([C@@H](OCCNC(=O)OC)c2cccc(F)c2)C1` [I*-43a, methyl 2-((R)-(3-fluorophenyl)((R)-1-((S)-1-(methylamino)-3-(1-methylcyclohexyl)propan-2-ylcarbamoyl)piperidin-3-yl)methoxy)ethylcarbamate] the value was below 10 nM.
For `CNC[C@H](CC1CCCCC1)NC(=O)N1CCC[C@@H]([C@@H](OCCCC(=O)NC)c2cccc(Cl)c2)C1` [I*-45a, (R)-3-((R)-(3-chlorophenyl)(4-(methylamino)-4-oxobutoxy)methyl)-N—((S)-1-cyclohexyl-3-(methylamino)propan-2-yl)piperidine-1-carboxamide] the value was below 50 nM.

As a reminder, the IC50 is the point on the concentration scale where inhibition reaches its midpoint.
